Measured values: patent US11376307B2, “Compositions and methods of treating cancer with glycomimetic peptides” (SUSAVION BIOSCIENCES, INC., priority 2018, dated 2022)
Positions of bridges follow the written chain, without caps; N, C: chain ends. Chains are numbered I, II in the order given.

Legend:
human ASGPR-1 = biological target: T1, human ASGPR-1 (Homo sapiens, UniProt P07306); experiment: Solid-phase binding assay with recombinant receptors; conditions: biotinylated tetravalent peptide
T1 construct: The extracellular domains of receptors, which were fused with the Fc domain of immunoglobulin IgG; purchased R&D Systems
T1 sequence (P07306 62-291 limits assumed): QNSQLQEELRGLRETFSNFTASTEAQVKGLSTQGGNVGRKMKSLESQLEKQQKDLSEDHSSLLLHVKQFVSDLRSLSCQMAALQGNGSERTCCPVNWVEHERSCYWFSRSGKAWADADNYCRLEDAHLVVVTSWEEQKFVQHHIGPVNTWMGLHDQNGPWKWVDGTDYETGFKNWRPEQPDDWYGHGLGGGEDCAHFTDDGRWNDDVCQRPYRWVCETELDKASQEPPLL
Method: (§1) Binding Assays Solid-phase binding assays were performed with streptavidin-, protein A/G-, or Nickel-coated microtiter plates (Pierce). His-tagged or Fc-fusion recombinant receptors (R&D Systems, Minneapolis, Minn.) were reconstituted in PBS. Sufficient receptors were added to wells to saturate the coating. His-tagged receptors were added to each well at a 5-fold excess over the stated capacity of the Ni coating to minimize non-specific binding of the peptide. Wells were washed three times with binding buffer (25 mM Tris HCl, pH 7.4, 150 mM NaCl, 0.05% Tween-20) to remove unbound receptor and 50 μL of 2 μM biotinylated peptide in binding buffer were added and allowed to incubate for 1 h. The wells were washed four times with binding buffer and then incubated with 50 μL of 1 μg/mL streptavidin conjugated with peroxidase (Sigma-Aldrich) for 1 h. The wells were washed five times with binding buffer and 50 μL of peroxidase substrate (1-Step™ Ultra TMB, Pierce) were added. After several minutes to allow color development, the reaction was stopped with 50 μL 1 M H3PO4 and absorbance was measured at 450 nm. Bound streptavidin was quantitated by the specific activity of peroxidase (absorbance/ng protein conjugate/min) under the conditions of the assay.
(§2) Solid-phase binding assays were performed with recombinant human receptors. Three variations of the binding assay were used in this study, all of which allowed the arms of the tetravalent peptide to have full flexibility. (i) Biotinylated peptide was bound in microtiter wells coated with streptavidin and incubated with recombinant human receptors. After extensive washing, the bound receptor was measured by peroxidase conjugated to a receptor-specific antibody. (ii) The extracellular domains of receptors, which were fused with the Fc domain of immunoglobulin IgG, were bound in wells coated with protein A/G. Biotinylated peptide was incubated with the receptors and, after extensive washing, bound peptide was measured with streptavidin conjugated with peroxidase. Or (iii), recombinant receptors with a poly-His tag were bound to Nickel-coated wells and incubated with biotinylated peptide. svL4 and sv6D contain His residues (FIGS. 1A, 1C) and can bind to the Ni coating, which was minimized by adding sufficient poly-His-tagged receptor to saturate the Ni coating.

[1] = biological target: T2, recombinant human CLEC10A (Homo sapiens, UniProt Q8IUN9); experiment: as above; conditions: for Binding to CLEC10A: biotinylated tetravalent peptide
T2 construct: The extracellular domains of receptors, which were fused with the Fc domain of immunoglobulin IgG; purchased R&D Systems
T2 sequence (Q8IUN9 61-316 limits assumed): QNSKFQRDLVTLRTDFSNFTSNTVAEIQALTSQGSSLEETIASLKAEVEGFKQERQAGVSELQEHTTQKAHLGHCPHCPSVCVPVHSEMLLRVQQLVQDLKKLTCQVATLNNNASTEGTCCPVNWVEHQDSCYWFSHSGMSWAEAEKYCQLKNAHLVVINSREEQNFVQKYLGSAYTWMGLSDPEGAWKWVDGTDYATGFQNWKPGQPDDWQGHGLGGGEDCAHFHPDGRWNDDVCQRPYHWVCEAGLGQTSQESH
Method: as §1, §2

peritoneal immune cells = experiment: Expansion of peritoneal cells after subcutaneous injection, flow cytometry; type: in vivo, C57BL/6 mice; conditions: for Change in mature, active peritoneal immune cell populations: 1 nmol/g s.c. on days 0, 2, 4, cells 24 h after each injection
Method: FIGS. 7A-7D. Expansion of peritoneal cells in C57BL/6 mice. Mice were injected subcutaneously at a dose of 1 nmol/g body weight of svL4, sv6D or svC1. Cells in each population recovered in a peritoneal lavage are expressed as cell counts (in thousands). Cells from three mice in each treatment group were pooled for analysis. The number of cells in each population was normalized to the average recovery of total cells from all groups. For each cell type, the left-hand, middle and right-hand set of bars represent samples from mice treated with svL4, sv6D or svC1, respectively. Mice were injected on days 0, 2 and 4, and cells were collected 24 h after each injection. Day 1, open bar; day 3, grey bar; day 5, black bar. Populations that express activation markers are indicated by an asterisk.
Flow Cytometry Healthy C57BL/6 male mice, 10 weeks old, were injected subcutaneously with peptides on alternate days. Peritoneal cells were isolated from mice 24 h after dosing by injecting ice cold PBS (containing 3% FBS) into the peritoneal cavity, gently massaging the abdomen, and then collecting the fluid, which was transferred into K2EDTA-treated tubes for evaluation of specific biomarkers. Cells from three mice in each group were pooled, counted and divided among FACS tubes (1×10^6 cells per tube). Cells were washed once in PBS containing 3% FBS, then stained with 0.25 to 1 μg of fluorescently conjugated antibody per 10^6 cells in 100 μL of buffer as recommended by the manufacturer (Table 1).
Cells were incubated with the antibodies for 30 min at 4° C. in the dark. Following staining, the cells were washed two times with PBS/3% FBS and immediately analyzed with a MACSQuant flow cytometer (Miltenyi Biotech, Inc., San Diego, Calif.). Compensation was performed using single stain tubes for each color present in the analysis as well as an unstained control sample. Collection of flow cytometric data and analysis with FlowJo software, version 10.0.6 (FlowJo, LLC, Ashland, Oreg.) were performed by Biomodels LLC (Watertown, Mass.).
To examine whether increases occurred in mature immune cells, peritoneal cells from Balb/c and C57BL/6 mice were analyzed by flow cytometry after cells were stained with the markers listed in Table 1. […] To explore this observation more extensively, svL4 or sv6D was injected into C57BL/6 mice on day 0, 2 or 4. Peritoneal cells were examined by flow cytometry 24 h after each injection. Shown in FIGS. 7A-7D are results expressed as cell counts for F4/80 CD11b CD86 (mature, active macrophages); CD11c (DCs); CD11c CD86 (activated DCs); CD4 CD69 (activated T cells); CD8 CD69 (activated cytotoxic T cells); NK1.1 CD3^+ CD69 (activated NKT cells); NK1.1 CD3^− CD69 (activated NK cells); CD19 (B cells); and CD19 CD73 CD80 CD273 (memory B cells). The numbers of these mature, activated cells continued to increase with each injection.

[2] = tested on: 4T1 breast cancer-bearing mice; conditions: 0.1 nmol/g svL4 s.c., 4 h
Method: When tumors reached a volume of at least 500 mm^3, animals were randomized into groups of 3 and dosed with either 0.1 or 1.0 nmol/g of svL4. At 4 h post dose, terminal blood was collected from 3 animals per group and prepared for serum. Sera were also collected from healthy Balb/c mice by the same procedure. Changes in the levels of cytokines/chemokines in sera from breast cancer-bearing and healthy mice were analyzed with the mouse L-308 membrane array by RayBiotech, Inc. (Norcross, Ga.) (Table 2).
Markers of lymphocyte and monocyte activation in response to 0.1 nmol/g svL4 in Balb/c mice bearing breast tumors are compared with healthy mice. Sera from three animals were pooled for analysis with an array of 308 soluble factors.
After the tumors had grown over a period of 10 to 12 days to a size of −500 mm^3, svL4 was injected subcutaneously at doses of 0.1 or 1.0 nmol/g. Sera were prepared 4 h after injection and analyzed with an array of 308 cytokines/chemokines.

[3] = High = control value negligible or low

| Substance | Binding to ASGPR-1 (human ASGPR-1) | Binding to CLEC10A [1] | Injection after which a significant increase in peritoneal cells occurred (peritoneal immune cells; 1 nmol/g s.c.) | Change in mature, active peritoneal immune cell populations (peritoneal immune cells) | Response of CD19+ B cells (peritoneal immune cells; compared with sv6D) | Ratio of level of IFN-γ in sera (treated vs. untreated) [2, 3] | Ratio of level of IL-17 in sera (treated vs. untreated) [2, 3] | Ratio of level of IL-21 in sera (treated vs. untreated) [2, 3] | Ratio of level of IL-23 in sera (treated vs. untreated) [2, 3] | Ratio of level of IL-1α in sera (treated vs. untreated) ([2]; pooled sera of 3) | Ratio of level of IL-2 in sera (treated vs. untreated) ([2]; pooled sera of 3) | Ratio of level of IL-12p70 in sera (treated vs. untreated) ([2]; pooled sera of 3) | Ratio of level of IL-27 in sera (treated vs. untreated) ([2]; pooled sera of 3) | Ratio of level of IL-28 in sera (treated vs. untreated) ([2]; pooled sera of 3) | Ratio of level of IL-31 in sera (treated vs. untreated) ([2]; pooled sera of 3) | Ratio of level of Lymphotoxin-α in sera (treated vs. untreated) ([2]; pooled sera of 3) | Ratio of level of TNFα in sera (treated vs. untreated) ([2]; pooled sera of 3) | Ratio of level of sHVEM in sera (treated vs. untreated) ([2]; pooled sera of 3) | Ca2+ dependence of binding ([1]; chelation of Ca2+ with low concentrations of EGTA, CLEC10A and ASGPR-1) | Overall peritoneal cell responses compared with svL4 (peritoneal immune cells; DCs, T cells, NKT cells, days 0, 2, 4) |
| --- | --- | --- | --- | --- | --- | --- | --- | --- | --- | --- | --- | --- | --- | --- | --- | --- | --- | --- | --- | --- |
| I: H-VQATQSNQHTPRGGGSKK-NH2 / II: H-VQATQSNQHTPRGGGSK / III: H-VQATQSNQHTPRGGGS / IV: H-VQATQSNQHTPRGGGS (amide I:17-IV:C, I:18-II:C, II:17-III:C) [svL4] | bound | bound | only after the second injection | several-fold increases | responded more strongly | High | High | High | High | 3 | 56 | 3 | 4.5 | 4.3 | 3.5 | 12.5 | 45 | 2 | – | – |
| I: H-NQHTPRGGGSKK-NH2 / II: H-NQHTPRGGGSK / III: H-NQHTPRGGGS / IV: H-NQHTPRGGGS (amide I:11-IV:C, I:12-II:C, II:11-III:C) [sv6D] | bound as strongly as the full-length sequence | bound as strongly as the full-length sequence | – | several-fold increases | – | – | – | – | – | – | – | – | – | – | – | – | – | – | requires Ca^2+ | greater than those to svL4 |
